IC50 data for 4 compounds are collected here from ChEMBL document CHEMBL4725362, “Discovery of Novel Inhibitors of a Critical Brain Enzyme Using a Homology Model and a Deep Convolutional Neural Network” (J Med Chem, 2020).

A short description of this experiment: Inhibition of N-terminal MBP tagged and C-terminal 6x-His-tagged ANAT (unknown origin) expressed in Escherichia coli BL21(DE3) assessed as reduction in coenzyme A production using DTNB incubated up to 30 mins in presence of 0.1%Triton X-100. On the set-up: species or system Homo sapiens.

pIC50: −log10 of the molar value.

The pIC50 is −log10 of the IC50, conventionally taken in molar units. Take `CCOC(=O)c1sc(NC(=O)COC(=O)Cn2c(=O)cnc3ccccc32)cc1C`: the pIC50 was 5.21. In the case of `Nc1cc(N)nc(SCc2ncc(-c3ccc(F)cc3)o2)n1`, the pIC50 was 5.32. The value for `Cc1c(C(=O)O)sc2[nH]c(=O)cc(CSc3nnc(C4CC4)[nH]3)c12` was 5.90.

As to `Cc1nnc(SCc2nnc(-c3c(-c4ccccc4)noc3C)o2)s1`, the pIC50 was 5.57.
